We go through 37 sequences from PMC7753147, “High-throughput determination of protein affinities using unmodified peptide libraries in nanomolar scale” (iScience, 2020).

In one test the test system is gephE. Kind of test: µSPOT peptide microarray binding assay with recombinant gephE. To be noted: µSPOT peptide microarray, GlyRβ full positional scan, recombinant gephE; intensity normalised to wild-type sequence DLRSNDFSIVGSLPR (=1).
The test system of the next test is native geph. Kind of test: µSPOT peptide microarray binding assay with native geph from mouse brain lysate. The note with it: µSPOT peptide microarray, GlyRβ full positional scan, native geph from mouse brain lysate; intensity normalised to wild-type sequence DLRSNDFSIVGSLPR (=1).
In the next test the test system is FL-geph. The experiment in a line: µSPOT peptide microarray binding assay with full-length geph. The note with it: µSPOT peptide microarray, GlyRβ full positional scan, intensity normalised to wild-type sequence DLRSNDFSIVGSLPR (=1).

As for “DLRSNDGSIVGSLPR [GlyRβ_Full_Positional_Scan_122, GlyR β 414-428 variant F420G]”, the “gephE Binding Intensity [norm.]” value in the test with gephE is listed as 0.49 norm. For the same sequence, in the test with native geph, the “Native geph Binding Intensity [norm.]” value came to 0.37 norm. Also, the “Fl-geph Binding Intensity [norm.]” value in the test on FL-geph is 0.55 norm.

Regarding “DLRSNDHSIVGSLPR [GlyRβ_Full_Positional_Scan_133, GlyR β 414-428 variant F420H]”, the “gephE Binding Intensity [norm.]” value with gephE came out at 0.57 norm. Also, the “Native geph Binding Intensity [norm.]” value with native geph came out at 0.44 norm. Also, the “Fl-geph Binding Intensity [norm.]” value in the test on FL-geph is reported as 0.61 norm.

Take “DLRSNDISIVGSLPR [GlyRβ_Full_Positional_Scan_123, GlyR β 414-428 variant F420I]”: the “gephE Binding Intensity [norm.]” value in the test on gephE worked out at 0.57 norm. Also, the “Native geph Binding Intensity [norm.]” value with native geph amounted to 0.46 norm. For the same sequence, the “Fl-geph Binding Intensity [norm.]” value in the test on FL-geph amounted to 0.66 norm.

For the sequence “DLRSNDKSIVGSLPR [GlyRβ_Full_Positional_Scan_134, GlyR β 414-428 variant F420K]”, the “gephE Binding Intensity [norm.]” value with gephE was determined as 0.53 norm. In the test on native geph, the “Native geph Binding Intensity [norm.]” value is reported as 0.3 norm. Besides, the “Fl-geph Binding Intensity [norm.]” value in the test with FL-geph is 0.61 norm.

In the case of “DLRSNDLSIVGSLPR [GlyRβ_Full_Positional_Scan_124, GlyR β 414-428 variant F420L]”, in the test on gephE, the “gephE Binding Intensity [norm.]” value is on record as 0.58 norm. Moreover, in the test with native geph, the “Native geph Binding Intensity [norm.]” value was 0.44 norm. Also, in the test on FL-geph, the “Fl-geph Binding Intensity [norm.]” value is reported as 0.69 norm.

Consider “DLRSNDMSIVGSLPR [GlyRβ_Full_Positional_Scan_138, GlyR β 414-428 variant F420M]”, for which the “gephE Binding Intensity [norm.]” value with gephE was found to be 0.43 norm. Also, the “Native geph Binding Intensity [norm.]” value in the test with native geph turned out to be 0.32 norm. For the same sequence, the “Fl-geph Binding Intensity [norm.]” value in the test with FL-geph came to 0.51 norm.

For “DLRSNDNSIVGSLPR [GlyRβ_Full_Positional_Scan_139, GlyR β 414-428 variant F420N]”, the “gephE Binding Intensity [norm.]” value with gephE was 0.52 norm. For the same sequence, the “Native geph Binding Intensity [norm.]” value in the test with native geph is reported as 0.4 norm. In addition, the “Fl-geph Binding Intensity [norm.]” value in the test on FL-geph is reported as 0.63 norm.

Turning to “DLRSNDPSIVGSLPR [GlyRβ_Full_Positional_Scan_125, GlyR β 414-428 variant F420P]”, the “gephE Binding Intensity [norm.]” value in the test with gephE turned out to be 0.54 norm. Further, the “Native geph Binding Intensity [norm.]” value with native geph was determined as 0.34 norm. Also, the “Fl-geph Binding Intensity [norm.]” value in the test on FL-geph amounted to 0.65 norm.

On to “DLRSNDQSIVGSLPR [GlyRβ_Full_Positional_Scan_140, GlyR β 414-428 variant F420Q]”, for which the “gephE Binding Intensity [norm.]” value in the test with gephE was found to be 0.48 norm. For the same sequence, the “Native geph Binding Intensity [norm.]” value with native geph stood at 0.43 norm. In the test on FL-geph, the “Fl-geph Binding Intensity [norm.]” value was 0.66 norm.

As for “DLRSNDRSIVGSLPR [GlyRβ_Full_Positional_Scan_132, GlyR β 414-428 variant F420R]”, in the test on gephE, the “gephE Binding Intensity [norm.]” value was 0.63 norm. Also, the “Native geph Binding Intensity [norm.]” value in the test with native geph was found to be 0.41 norm. The “Fl-geph Binding Intensity [norm.]” value in the test with FL-geph is on record as 0.77 norm.

In the case of “DLRSNDSSIVGSLPR [GlyRβ_Full_Positional_Scan_135, GlyR β 414-428 variant F420S]”, the “gephE Binding Intensity [norm.]” value in the test on gephE turned out to be 0.51 norm. The “Native geph Binding Intensity [norm.]” value in the test with native geph came to 0.35 norm. Further, the “Fl-geph Binding Intensity [norm.]” value with FL-geph amounted to 0.46 norm.

For “DLRSNDTSIVGSLPR [GlyRβ_Full_Positional_Scan_136, GlyR β 414-428 variant F420T]”, the “gephE Binding Intensity [norm.]” value in the test on gephE is reported as 0.47 norm. The “Native geph Binding Intensity [norm.]” value with native geph turned out to be 0.36 norm. Also, the “Fl-geph Binding Intensity [norm.]” value in the test with FL-geph is 0.51 norm.

For “DLRSNDVSIVGSLPR [GlyRβ_Full_Positional_Scan_126, GlyR β 414-428 variant F420V]”, in the test on gephE, the “gephE Binding Intensity [norm.]” value was 0.52 norm. Also, in the test with native geph, the “Native geph Binding Intensity [norm.]” value amounted to 0.38 norm. In addition, in the test with FL-geph, the “Fl-geph Binding Intensity [norm.]” value was found to be 0.76 norm.

As for “DLRSNEFSIVGSLPR [GlyRβ_Full_Positional_Scan_111]”, the “gephE Binding Intensity [norm.]” value in the test on gephE is on record as 0.96 norm. Also, the “Native geph Binding Intensity [norm.]” value in the test on native geph turned out to be 0.97 norm. Also, the “Fl-geph Binding Intensity [norm.]” value in the test with FL-geph turned out to be 0.94 norm.

In the case of “DLRSNFFSIVGSLPR [GlyRβ_Full_Positional_Scan_107]”, the “gephE Binding Intensity [norm.]” value with gephE came out at 0.74 norm. The “Native geph Binding Intensity [norm.]” value with native geph is 0.34 norm. The “Fl-geph Binding Intensity [norm.]” value in the test with FL-geph is recorded as 0.78 norm.

With “DLRSNGFSIVGSLPR [GlyRβ_Full_Positional_Scan_102]”, the “gephE Binding Intensity [norm.]” value in the test on gephE stood at 1 norm. Moreover, the “Native geph Binding Intensity [norm.]” value with native geph stood at 0.65 norm. For the same sequence, the “Fl-geph Binding Intensity [norm.]” value with FL-geph came to 1.07 norm.

Turning to “DLRSNHFSIVGSLPR [GlyRβ_Full_Positional_Scan_113]”, the “gephE Binding Intensity [norm.]” value in the test on gephE is 0.86 norm. Further, the “Native geph Binding Intensity [norm.]” value in the test with native geph was found to be 0.48 norm. In the test with FL-geph, the “Fl-geph Binding Intensity [norm.]” value is 0.85 norm.

Turning to “DLRSNIFSIVGSLPR [GlyRβ_Full_Positional_Scan_103]”, in the test with gephE, the “gephE Binding Intensity [norm.]” value turned out to be 0.79 norm. Moreover, the “Native geph Binding Intensity [norm.]” value with native geph stood at 0.35 norm. Further, the “Fl-geph Binding Intensity [norm.]” value in the test with FL-geph was 0.97 norm.

“DLRSNKFSIVGSLPR [GlyRβ_Full_Positional_Scan_114]”: in the test with gephE, the “gephE Binding Intensity [norm.]” value was 0.8 norm. Further, the “Native geph Binding Intensity [norm.]” value in the test on native geph was 0.37 norm. Further, in the test with FL-geph, the “Fl-geph Binding Intensity [norm.]” value worked out at 0.98 norm.

Regarding “DLRSNLFSIVGSLPR [GlyRβ_Full_Positional_Scan_104]”, the “gephE Binding Intensity [norm.]” value in the test on gephE amounted to 0.78 norm. Besides, in the test on native geph, the “Native geph Binding Intensity [norm.]” value is listed as 0.37 norm. Besides, the “Fl-geph Binding Intensity [norm.]” value in the test on FL-geph was found to be 0.9 norm.

With “DLRSNMFSIVGSLPR [GlyRβ_Full_Positional_Scan_118]”, the “gephE Binding Intensity [norm.]” value in the test on gephE was found to be 0.85 norm. Moreover, the “Native geph Binding Intensity [norm.]” value with native geph was found to be 0.62 norm. The “Fl-geph Binding Intensity [norm.]” value in the test on FL-geph was 0.84 norm.

As to “DLRSNNFSIVGSLPR [GlyRβ_Full_Positional_Scan_119]”, the “gephE Binding Intensity [norm.]” value in the test on gephE is recorded as 0.89 norm. Also, in the test with native geph, the “Native geph Binding Intensity [norm.]” value is 0.57 norm. Further, the “Fl-geph Binding Intensity [norm.]” value in the test with FL-geph is 0.69 norm.

For the sequence “DLRSNPFSIVGSLPR [GlyRβ_Full_Positional_Scan_105]”, the “gephE Binding Intensity [norm.]” value in the test with gephE came to 0.89 norm. Besides, the “Native geph Binding Intensity [norm.]” value in the test on native geph is on record as 0.58 norm. Also, the “Fl-geph Binding Intensity [norm.]” value in the test with FL-geph came out at 0.85 norm.

As for “DLRSNQFSIVGSLPR [GlyRβ_Full_Positional_Scan_120]”, the “gephE Binding Intensity [norm.]” value with gephE is 0.95 norm. For the same sequence, the “Native geph Binding Intensity [norm.]” value in the test with native geph was 0.53 norm. Further, in the test with FL-geph, the “Fl-geph Binding Intensity [norm.]” value is 0.78 norm.

Regarding “DLRSNRFSIVGSLPR [GlyRβ_Full_Positional_Scan_112]”, the “gephE Binding Intensity [norm.]” value in the test on gephE came out at 0.84 norm. Also, the “Native geph Binding Intensity [norm.]” value with native geph worked out at 0.36 norm. The “Fl-geph Binding Intensity [norm.]” value with FL-geph is on record as 0.86 norm.

With “DLRSNSFSIVGSLPR [GlyRβ_Full_Positional_Scan_115]”, in the test on gephE, the “gephE Binding Intensity [norm.]” value was found to be 0.89 norm. In the test with native geph, the “Native geph Binding Intensity [norm.]” value is 0.75 norm. Also, the “Fl-geph Binding Intensity [norm.]” value in the test on FL-geph stood at 0.92 norm.

As to “DLRSNTFSIVGSLPR [GlyRβ_Full_Positional_Scan_116]”, in the test on gephE, the “gephE Binding Intensity [norm.]” value was found to be 0.85 norm. Besides, in the test on native geph, the “Native geph Binding Intensity [norm.]” value amounted to 0.75 norm. The “Fl-geph Binding Intensity [norm.]” value in the test on FL-geph came to 0.97 norm.

As for “DLRSNVFSIVGSLPR [GlyRβ_Full_Positional_Scan_106]”, the “gephE Binding Intensity [norm.]” value with gephE was found to be 0.81 norm. Moreover, the “Native geph Binding Intensity [norm.]” value in the test on native geph is given as 0.58 norm. In addition, the “Fl-geph Binding Intensity [norm.]” value in the test on FL-geph stood at 0.95 norm.

With “DLRSNWFSIVGSLPR [GlyRβ_Full_Positional_Scan_108]”, in the test with gephE, the “gephE Binding Intensity [norm.]” value came out at 0.79 norm. Also, the “Native geph Binding Intensity [norm.]” value in the test on native geph came out at 0.32 norm. For the same sequence, the “Fl-geph Binding Intensity [norm.]” value in the test on FL-geph is given as 0.65 norm.

Regarding “DLRSNYFSIVGSLPR [GlyRβ_Full_Positional_Scan_109]”, the “gephE Binding Intensity [norm.]” value in the test with gephE worked out at 0.82 norm. In addition, in the test with native geph, the “Native geph Binding Intensity [norm.]” value came to 0.38 norm. Besides, in the test with FL-geph, the “Fl-geph Binding Intensity [norm.]” value was 0.7 norm.

Turning to “DLRSPDFSIVGSLPR [GlyRβ_Full_Positional_Scan_085]”, the “gephE Binding Intensity [norm.]” value with gephE came out at 0.95 norm. For the same sequence, in the test with native geph, the “Native geph Binding Intensity [norm.]” value was 0.86 norm. Also, in the test on FL-geph, the “Fl-geph Binding Intensity [norm.]” value worked out at 0.85 norm.

As to “DLRSQDFSIVGSLPR [GlyRβ_Full_Positional_Scan_100]”, the “gephE Binding Intensity [norm.]” value in the test with gephE came out at 0.96 norm. In the test on native geph, the “Native geph Binding Intensity [norm.]” value was 0.97 norm. Besides, the “Fl-geph Binding Intensity [norm.]” value with FL-geph is given as 1.01 norm.

Take “DLRSRDFSIVGSLPR [GlyRβ_Full_Positional_Scan_092]”: the “gephE Binding Intensity [norm.]” value in the test on gephE was determined as 0.89 norm. The “Native geph Binding Intensity [norm.]” value with native geph is reported as 0.62 norm. Besides, the “Fl-geph Binding Intensity [norm.]” value in the test on FL-geph was determined as 0.77 norm.

For “DLRSSDFSIVGSLPR [GlyRβ_Full_Positional_Scan_095]”, the “gephE Binding Intensity [norm.]” value in the test on gephE came out at 0.99 norm. The “Native geph Binding Intensity [norm.]” value in the test on native geph is recorded as 0.85 norm. Further, the “Fl-geph Binding Intensity [norm.]” value in the test on FL-geph is recorded as 0.95 norm.

As for “DLRSTDFSIVGSLPR [GlyRβ_Full_Positional_Scan_096]”, in the test on gephE, the “gephE Binding Intensity [norm.]” value came to 1.06 norm. In the test on native geph, the “Native geph Binding Intensity [norm.]” value came out at 0.73 norm. Also, in the test on FL-geph, the “Fl-geph Binding Intensity [norm.]” value is given as 0.78 norm.

As for “DLRSVDFSIVGSLPR [GlyRβ_Full_Positional_Scan_086]”, the “gephE Binding Intensity [norm.]” value in the test with gephE is 0.84 norm. Besides, the “Native geph Binding Intensity [norm.]” value in the test on native geph was 0.72 norm. Also, the “Fl-geph Binding Intensity [norm.]” value in the test with FL-geph was 0.83 norm.

For the sequence “DLRSWDFSIVGSLPR [GlyRβ_Full_Positional_Scan_088]”, the “gephE Binding Intensity [norm.]” value with gephE worked out at 0.86 norm. In addition, the “Native geph Binding Intensity [norm.]” value with native geph was 0.47 norm. The “Fl-geph Binding Intensity [norm.]” value in the test with FL-geph was determined as 0.66 norm.
